Data from PMC12508057, “Discovery of ETI41 and ETI60: novel selective endosomal Toll-like receptor inhibitors for the treatment of autoimmune diseases” (Experimental & Molecular Medicine, 2025).
Where two headings read alike, the source gives them in different places.

Legend:
Type in all cases: cell-based
TLR9 = experiment: FACS analysis of FAM-labeled CpG-ODN uptake and retention; details: for Endocytosis of CpG ODNs: 30-min treatment with labeled CpG ODNs
Experimental: RAW 264.7 cells were seeded into 60-mm dishes at 2 × 10^6 cells per dish. After 30 min of treatment with ETI41 or ETI60, cells were incubated with 1 μM of 3’-FAM-labeled ODN 2395 (Bioneer Inc.) for 30 min. Fluorescence intensity was measured using a NovoCyte Flow Cytometer (Agilent Technologies) and analyzed using NovoExpress software.
Fig. 3 Binding mechanism of ETI41 and ETI60 with TLR7 and TLR9. a ETI41 and ETI60 bind to the extracellular domain of TLR7. b Detailed intermolecular interactions ofETI41 and ETI60 are shown with the key residues of TLR7. c ETI41 and ETI60 bind to the extracellular domain of TLR9. d Intermolecular interactions of ETI41 and ETI60 with the key residues of TLR9. The asterisk indicates chain A of TLR7 and TLR9. ETI41 and ETI60 are depicted in ball-and-stick models. Bonds are represented by lines, with distances measured in ångström (Å) units. […] Data presented are from three independent experiments (n = 3), and statistical differences between the induced case and other cases were analyzed and verified using a one-tailed Student’s t-test (*P < 0.05, **P < 0.01, ***P < 0.001). TEXT PRINTED IN THE PICTURE: (f) ETI41: ODN-Fm (30min): Q3-1 0.00%; ODN-Fm (30min): Q3-2 0.00%; ODN-Fm (30min): Q3-3 10.75%; ODN-Fm (30min): Q3-4 89.25%; ODN-Fm (30min) → Washing → Incubation (1h): Q3-1 0.00%; ODN-Fm (30min) → Washing → Incubation (1h): Q3-2 0.00%; ODN-Fm (30min) → Washing → Incubation (1h): Q3-3 40.96%; ODN-Fm (30min) → Washing → Incubation (1h): Q3-4 59.04% | (f) ETI60: ODN-Fm (30min): Q3-1 0.00%; ODN-Fm (30min): Q3-2 0.00%; ODN-Fm (30min): Q3-3 12.80%; ODN-Fm (30min): Q3-4 87.20%; ODN-Fm (30min) → Washing → Incubation (1h): Q3-1 0.00%; ODN-Fm (30min) → Washing → Incubation (1h): Q3-2 0.00%; ODN-Fm (30min) → Washing → Incubation (1h): Q3-3 56.37%; ODN-Fm (30min) → Washing → Incubation (1h): Q3-4 43.63% DOUBTS OF THE COPYIST ABOUT THIS PICTURE: Panel f, very small print: the digits 3, 5, 6, 8 and 9 cannot be told apart with certainty in any quadrant percentage. / ETI41, ODN-Fm (30min): Q3-3 10.75% and Q3-4 89.25% are best readings / ETI60, ODN-Fm (30min): Q3-3 12.80% and Q3-4 87.20% are best readings / ETI41, Washing/Incubation (1h): Q3-3 40.96% and Q3-4 59.04% are best readings / ETI60, Washing/Incubation (1h): Q3-3 56.37% and Q3-4 43.63% are best readings / Panel f: the control plots ('Con' and '-') also print quadrant percentages. They are left out because they are not substance results.
FACS analysis further validated the binding of ETI41 and ETI60. Unmethylated CpG ODNs, acting as ligands for TLR9, were fluorescently labeled, and their cellular penetration was monitored.

TLR4 = target: T1, TLR4 (Homo sapiens, UniProt O00206); experiment: Surface TLR specificity, TNF-α secretion in differentiated THP-1; details: 2 and 5 μM, differentiated THP-1, LPS
T1 construct: in differentiated human THP-1 cells; endogenous in cells; host or cells: differentiated THP-1
Experimental: (§1) RAW 264.7 and differentiated THP-1 cells were seeded into 96-well plates at 2 × 10^4 cells per well, while Daudi cells were seeded at 5 × 10^4 cells per well. After stabilization for 30 min, cells were stimulated with specific TLR agonists for 4 or 24 h. Supernatants were diluted and transferred to precoated ELISA plates to measure TNF-α secretion using kits from Invitrogen. Optical absorbance was measured using a BioTek Synergy HTX multimode microplate reader, and data were interpolated using BioTek Gen5 software.
(§2) The cells were activated with agonistic ligands: […], TLR3 (poly I:C, 2 μg/ml, 24 h), TLR4 (LPS, 10 or 100 ng/ml, 4 h), TLR5 (FLA-ST, 500 ng/ml, 4 h), TLR7 (ORN06/LyoVec, 2 μg/ml, 24 h; and IMQ, 1 μg/ml, 4 h), TLR8 (TL8-506, 2 μg/ml, 24 h) and TLR9 (ODN2395, 1 μM, 4 h) at various concentrations in RAW 264.7 cells, human Daudi cells and THP-1 cells. Data are from at least three independent experiments (n = 3) and statistical differences between the induced case and other cases were analyzed and verified using a one-tailed Student’s t-test (*P < 0.05, **P < 0.01, ***P < 0.001).
(§3) Given the structural similarities among TLR family proteins, achieving high selectivity is challenging. We tested the effects of ETI41 and ETI60 on various surface TLRs to determine their specificity. […] TLRs activate transcription factors, including NF-κB, MAPKs, c-Jun N-terminal kinase (JNK), extracellular signal-regulated kinase (ERK) and IRF7, which regulate cellular functions such as proliferation and apoptosis. Western blot analysis confirmed that ETI41 and ETI60 inhibited IMQ- or ODN2395-induced phosphorylation of MAPKs (p-ERK, p-JNK and p-p38), nuclear translocation of the NF-κB p65 subunit, Iκ-Bα degradation and IRF7 expression in RAW 264.7 cells (Fig. 2a–c and Supplementary Figs. 2 and 3).

TLR5 = target: T2, TLR5 (Homo sapiens, UniProt O60602); experiment: as above; details: 2 and 5 μM, differentiated THP-1, FLA-ST
T2 construct: in differentiated human THP-1 cells; endogenous in cells; host or cells: differentiated THP-1
Experimental: as §1, §2, §3

[1] = MTT assay, cell survival in RAW 264.7; details: mouse, RAW 264.7 cell line, read-out: LC50
Experimental: After 24 h, the supernatant was removed, and 500 μg/ml of 3-[4,5-dimethylthiazol-2-yl]-2,5 diphenyl tetrazolium bromide (MTT) solution (Invivogen) was added. After a 3 h incubation, the supernatant was removed, and DMSO was added to dissolve the formazan dye.
One-tailed paired Student’s t-tests were performed using Microsoft Excel (Microsoft). […] The therapeutic index was calculated as […]. Animal experimental results are expressed as mean ± standard deviation and analyzed using SPSS v.20 (IBM SPSS Statistics). Homogeneity of variance was assessed using Levene’s test.
Data are from at least three independent experiments (n = 3) and statistical differences between the induced case and other cases were analyzed and verified using a one-tailed Student’s t-test (*P < 0.05, **P < 0.01, ***P < 0.001).

T2 sequence (O60602 21-858): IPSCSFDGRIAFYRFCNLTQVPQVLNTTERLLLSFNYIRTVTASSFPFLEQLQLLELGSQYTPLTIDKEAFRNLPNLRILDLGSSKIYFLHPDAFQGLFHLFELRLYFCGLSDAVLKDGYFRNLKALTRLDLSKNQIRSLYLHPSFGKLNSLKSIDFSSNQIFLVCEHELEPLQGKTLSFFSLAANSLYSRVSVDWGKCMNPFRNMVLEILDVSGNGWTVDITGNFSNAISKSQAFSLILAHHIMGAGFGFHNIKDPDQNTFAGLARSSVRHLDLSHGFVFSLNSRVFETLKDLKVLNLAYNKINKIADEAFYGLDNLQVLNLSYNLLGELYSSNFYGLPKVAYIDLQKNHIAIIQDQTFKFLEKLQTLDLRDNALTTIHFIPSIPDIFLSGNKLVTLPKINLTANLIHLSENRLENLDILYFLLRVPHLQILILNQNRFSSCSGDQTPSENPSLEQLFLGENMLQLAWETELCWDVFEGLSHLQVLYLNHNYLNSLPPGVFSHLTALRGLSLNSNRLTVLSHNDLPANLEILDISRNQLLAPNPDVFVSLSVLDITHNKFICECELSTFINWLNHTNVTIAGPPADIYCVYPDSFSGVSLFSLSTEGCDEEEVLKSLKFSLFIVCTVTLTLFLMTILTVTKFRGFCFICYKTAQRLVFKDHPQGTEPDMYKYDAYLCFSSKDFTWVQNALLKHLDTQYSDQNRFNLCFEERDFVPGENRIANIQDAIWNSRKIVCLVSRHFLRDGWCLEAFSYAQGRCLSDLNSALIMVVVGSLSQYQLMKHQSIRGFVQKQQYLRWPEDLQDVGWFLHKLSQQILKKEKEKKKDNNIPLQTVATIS
T1 sequence (O00206 24-839): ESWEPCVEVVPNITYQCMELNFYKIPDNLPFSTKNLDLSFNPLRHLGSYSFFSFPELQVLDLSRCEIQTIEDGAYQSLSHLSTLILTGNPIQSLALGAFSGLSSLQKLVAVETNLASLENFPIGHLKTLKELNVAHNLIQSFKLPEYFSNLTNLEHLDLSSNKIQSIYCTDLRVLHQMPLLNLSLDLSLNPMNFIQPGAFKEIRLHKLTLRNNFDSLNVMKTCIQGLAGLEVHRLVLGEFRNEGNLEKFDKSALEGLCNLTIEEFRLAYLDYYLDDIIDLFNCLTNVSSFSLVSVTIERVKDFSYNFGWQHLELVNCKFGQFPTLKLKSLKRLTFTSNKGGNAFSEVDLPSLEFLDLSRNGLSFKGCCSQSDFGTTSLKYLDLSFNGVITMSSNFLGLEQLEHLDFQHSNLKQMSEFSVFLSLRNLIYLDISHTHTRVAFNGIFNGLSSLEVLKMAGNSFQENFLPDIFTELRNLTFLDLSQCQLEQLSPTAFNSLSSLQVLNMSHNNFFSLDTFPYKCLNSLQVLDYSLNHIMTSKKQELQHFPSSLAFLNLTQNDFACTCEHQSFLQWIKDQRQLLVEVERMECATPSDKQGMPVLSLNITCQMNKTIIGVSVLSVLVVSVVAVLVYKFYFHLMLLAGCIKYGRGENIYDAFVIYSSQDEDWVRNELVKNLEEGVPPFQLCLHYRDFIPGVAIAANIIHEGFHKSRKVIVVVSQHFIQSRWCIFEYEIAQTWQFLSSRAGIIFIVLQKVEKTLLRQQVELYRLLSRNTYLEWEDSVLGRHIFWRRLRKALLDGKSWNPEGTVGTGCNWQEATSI
T1 sequence (Q9Y6Y9 19-160 partner): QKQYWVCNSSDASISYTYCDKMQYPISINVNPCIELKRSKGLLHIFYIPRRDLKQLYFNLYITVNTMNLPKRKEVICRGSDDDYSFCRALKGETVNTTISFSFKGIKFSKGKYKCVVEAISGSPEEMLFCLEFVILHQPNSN

| SMILES | Endocytosis of CpG ODNs (TLR9) | Fluorescence intensity of labeled CpG ODN after washing (TLR9) | Inhibition of TLR4 (TNF-α secretion) (TLR4) | Inhibition of TLR5 (TNF-α secretion) (TLR5) | CC50 at 24 h [1] [µM] | CC50 at 24 h ([1]; RAW 264.7 cells) [µM] |
| --- | --- | --- | --- | --- | --- | --- |
| Cc1cc2c(N)c3c(nc2n1CCCN(C)C)CCCCCC3 [ETI41] | did not interfere with endocytosis | reduction in fluorescence intensity | neither compound inhibited | neither compound inhibited | 67.2 | – |
| COc1ccc2c3c(N)c4c(nc3n(CCCN(C)C)c2c1)CCCC4 [ETI60] | did not interfere with endocytosis | reduction in fluorescence intensity | neither compound inhibited | neither compound inhibited | – | 51.2 |
